For this experiment, the system named is MRL/Ipr mice (lupus model). Put plainly: Survival of MRL/Ipr mice (lupus model). The note with it: 10 mg/kg IP, compared with HCQ at the same dose (FIG. 1). Format: in vivo. The protocol: The MRL/MPJ-Fas (Ipr) (MRL-Ipr) and C57Bl/6 mice for the behavioral experiments are from the Jackson Laboratory and are randomly distributed into 5 groups. All animals were kept at controlled temperature (23° C.+/−1° C.) with a 12-hour day/night cycle, water and ad libitum food.
Mice received the specified dose of hydroxychloroquine (Tokyo Chemical Industry), CB137 or carrier intraperitoneally (IP), every 24 hours and for 5 days over a 10-week period. With regard to the MRL/Ipr mice, treatment started at 7 weeks of age, and ended at 23 weeks of age where a significant proportion of untreated mice died. With regard to the C57B1/6 mice, the same treatment program was carried out and the mice were sacrificed after […]. HCQ and CB137 were each freshly prepared in physiological saline and injected into the mice in a final volume of 50 μL. The MRL/Ipr mice were examined daily for skin lesions. For histological analysis, the animals were sacrificed and the tissues were rapidly dissected and immediately post-fixed.

Our source for the survival rate values is patent US10647677B2, “Analogues of hydroxychloroquine (HCQ) without retinal toxicity” (Inoviem Scientific, priority 2015, dated 2020).

Structures are written as SMILES.

For `CCN(CCO)CCCC(C)Nc1c(Cl)cnc2cc(Cl)ccc12` (stereo not shown) [CB137], the survival rate entry is listed as “significantly higher survival rate”.
